Test results taken from paper PMC11009625, “Antibiotic class with potent in vivo activity targeting lipopolysaccharide synthesis in Gram-negative bacteria” (Proceedings of the National Academy of Sciences of the …, 2024).
Converted amounts (≈) assume the structure as drawn. Where two headings read alike, the source gives them in different places.

Columns and labels:
[1] = system: E. coli ATCC 25922; assay: MIC (CLSI broth microdilution), wild-type E. coli; format: cell-based; conditions: Escherichia coli, ATCC25922
Protocol: (§1) Minimum inhibitory concentration (MIC) values were determined according to the Clinical Laboratory Standards Institute guidelines. Frequency of resistance was determined by plating ~5 × 10^8 bacterial cells on agar-solidified media plates containing test compound at concentrations corresponding to four times the measured solid-media MIC of the strains. Colonies were counted after 24 h, restreaked onto media containing the same concentration of compound, and the MIC remeasured against the assayed compound. Genomic DNA from isolated clones was sequenced by paired-end sequencing on an Illumina MiSeq device. Complete experimental details available in SI Appendix. […]
(§2) Minimum inhibitory concentration (MIC) determination. Broth microdilution and agar dilution
(§3) MIC assays were conducted according to CLSI guidelines (M07-2012). Appropriate inoculation
(§4) suspension density was assessed using a Sensititre Nephelometer with a Sensititre 0.5
(§5) McFarland Standard. […]

[2] = system: K. pneumoniae ATCC 13883; assay: MIC, K. pneumoniae, with and without 50% human serum; format: cell-based; conditions: Klebsiella pneumoniae
Protocol: as §1, §2, §3, §4
McFarland Standard. Serum MICs were conducted in 50% heat-inactivated pooled human

[3] = system: HepG2 cells; assay: HepG2 cytotoxicity (72 h); format: cell-based; conditions: Homo sapiens, HepG2, 72 h, read-out: HepG2 viability IC50, 72 h
Protocol: Thermodynamic solubility was assessed by dissolving 2 to 3 mg of test compound to equilibrium in 100 mM KPO4-buffer, pH 7.4. The metabolic stability assay was performed in the presence of human and mouse liver microsomes by measurement of test compounds disappearance over time (60 min). The plasma protein binding assay, including stability estimation, was performed using the RED devices (Thermo Fisher Scientific) in the presence of human and mouse plasma. All samples from the in vitro ADME studies were quantified by liquid chromatography-triple quadrupole mass spectrometry (LC–MS/MS). The assays were performed as previously described ([36]) and the details are available in SI Appendix. Cytotoxicity was assessed by incubation of test compounds in the presence of HepG2 cells for 72 h as previously described ([37]).

[4] = system: E. coli ATCC 25922 ΔtolC efflux mutant; assay: MIC, E. coli efflux mutant; format: cell-based
Protocol: as §1, §2, §3

[5] = in vitro; format: cell-based
Protocol: Minimum inhibitory concentration (MIC) determination. Broth microdilution and agar dilution MIC assays were conducted according to CLSI guidelines (M07-2012). Appropriate inoculation suspension density was assessed using a Sensititre Nephelometer with a Sensititre 0.5 McFarland Standard. Serum MICs were conducted in 50% heat-inactivated pooled human serum (Sigma-Aldrich). Serum was heated to 56 °C for one hour and then filtered using a 0.2 µm […]
Strain construction. The efflux-defective P. mirabilis strain EN1490 was constructed using EZ-Tn5 <KAN-2> Transposome mutagenesis with TypeOne Restriction Inhibitor. Approximately 3000 independent clones were screened for increased susceptibility to chloramphenicol (8 mg/L), yielding 2 independent clones with insertions in the gene tolC. […]

[6] = system: Eco MG1655 ∆tolC (EN243); assay: MIC, efflux-defective parental strain EN243; format: cell-based, E. coli; conditions: Escherichia coli, MG1655, read-out: MIC EN243
Protocol: as §1, §2, §3, §4, §5

[7] = system: lpxH mutants of EN243 (Eco MG1655 ∆tolC); assay: MIC, lpxH mutants with reduced susceptibility in efflux-defective E. coli background; format: cell-based; conditions: Escherichia coli
Protocol: as §1
Minimum inhibitory concentration (MIC) determination. Broth microdilution and agar dilution MIC assays were conducted according to CLSI guidelines (M07-2012). Appropriate inoculation suspension density was assessed using a Sensititre Nephelometer with a Sensititre 0.5 […]
as §5
Frequency of Resistance. Frequency of resistance was assessed by spread plating between […] cfu of a freshly-grown culture of the strain of interest on plates containing a concentration of compound corresponding to 4 times the MIC of the strain (as determined by agar-dilution MIC). Serial dilutions of the same cultures were plated on non-selective media to determine the number of cells plated. The frequency of resistance was determined by dividing the number of colonies obtained on the selective plates after 24 hours of growth by the calculated total population plated. Typically 4 independently grown cultures were used to initiate 4 separate experiments, and the total combined number of obtained colonies and plated populations were used for calculations. Isolated colonies from selection plates were re-streaked on an additional plate containing the same concentration of compound used in the original selection. Clones were saved at -80 °C for subsequent analysis.
Whole-genome sequencing and data analysis. Genomic DNA of selected clones was prepared using an Epicentre MasterPure Complete DNA Purification Kit. Whole-genome sequencing libraries were prepared using an Illumina Nextera XT Library Preparation Kit. The libraries were sequenced using an Illumina MiSeq device with a V3 600-cycle reagent kit. Whole-genome sequencing data was analyzed using CLC Genomics Workbench Version 11. […]

[8] = read-out: MIC E. coli ATCC 25922 Wild-type
[9] = ATCC13883, read-out: MIC K. pneumoniae ATCC 13883 Wild-type

Compound `Cc1cc(C#N)nc(N2CCN(S(=O)(=O)c3ccc(NC(=O)c4cc(CN5CC(CN)C5)ccc4N(C)S(C)(=O)=O)cc3)CC2)n1` [EBL-3647] has an MIC ([1]; ATCC 25922 (Table S4), read-out: MIC E. coli EN0001) of 2 µg/mL (≈ 2.99 µM), an MIC [1, 8] of 2 µg/mL (≈ 2.99 µM) and an MIC ([2]; ATCC13883, read-out: MIC K. pneumoniae ATCC 13883 In 50% human serum) of 0.25 µg/mL (≈ 0.374 µM). For the same compound, the MIC [2, 9] was 0.5 µg/mL (≈ 0.749 µM), the IC50 [3] was 54 µM and the “MIC E. coli ATCC 25922 ΔtolC efflux mutant” value [4] was no more than 0.125 µg/mL. It also gave a hemolysis [5] of 0.13%.

With `CC(=O)N1CCc2cc(S(=O)(=O)N3CCN(c4cccc(C(F)(F)F)c4)CC3)ccc21` [AZ1, reference compound] the MIC [6] was 0.125 µg/mL (≈ 0.276 µM), the MIC [1, 8] was greater than 64 µg/mL and the MIC [2, 9] was greater than 64 µg/mL. The MIC ([7]; MG1655, read-out: MIC CH6045) was 2 µg/mL (≈ 4.41 µM), the MIC ([7]; MG1655, read-out: MIC CH6047) was greater than 64 µg/mL and the MIC ([7]; MG1655, read-out: MIC CH6048) was 0.5 µg/mL (≈ 1.1 µM). For the same compound, the MIC ([7]; MG1655, read-out: MIC CH6051) was greater than 64 µg/mL, the MIC ([7]; MG1655, read-out: MIC CH7010) was 2 µg/mL (≈ 4.41 µM) and the MIC ([7]; MG1655, read-out: MIC CH7011) was 2 µg/mL (≈ 4.41 µM). The MIC ([7]; MG1655, read-out: MIC CH7012) was 4 µg/mL (≈ 8.82 µM), the MIC ([7]; MG1655, read-out: MIC CH7013) was 64 µg/mL (≈ 141 µM) and the MIC ([7]; MG1655, read-out: MIC CH7015) was greater than 64 µg/mL. It also gave an MIC ([7]; MG1655, read-out: MIC CH7016) of 2 µg/mL (≈ 4.41 µM), an MIC ([7]; MG1655, read-out: MIC CH8845) of 2 µg/mL (≈ 4.41 µM) and an MIC ([7]; MG1655, read-out: MIC CH8846) of 2 µg/mL (≈ 4.41 µM). It also gave an MIC ([7]; MG1655, read-out: MIC CH8847) greater than 64 µg/mL, an MIC ([7]; MG1655, read-out: MIC CH8848) of 4 µg/mL (≈ 8.82 µM) and an MIC ([7]; MG1655, read-out: MIC CH8850) of 2 µg/mL (≈ 4.41 µM). For the same compound, the MIC ([7]; MG1655, read-out: MIC CH8851) was 1 µg/mL (≈ 2.21 µM), the MIC ([7]; MG1655, read-out: MIC CH8853) was 2 µg/mL (≈ 4.41 µM) and the MIC ([7]; MG1655, read-out: MIC CH8854) was 2 µg/mL (≈ 4.41 µM). For the same compound, the MIC ([7]; MG1655, read-out: MIC CH8855) was greater than 64 µg/mL, the MIC ([7]; MG1655, read-out: MIC CH8856) was greater than 64 µg/mL and the MIC ([7]; MG1655, read-out: MIC CH8868) was greater than 64 µg/mL. It also gave an MIC ([7]; MG1655, read-out: MIC CH8869) of 0.125 µg/mL (≈ 0.276 µM), an MIC ([7]; MG1655, read-out: MIC CH8870) greater than 64 µg/mL and an MIC ([7]; MG1655, read-out: MIC CH8871) greater than 64 µg/mL. For the same compound, the IC50 [3] was 22.5 µM, the “MIC E. coli ATCC 25922 ΔtolC efflux mutant” value [4] was 2 µg/mL (≈ 4.41 µM) and the hemolysis [5] was 2.1%.
